Measurements: patent US20070026505A1, “Amino acid and metabolite biosynthesis” (priority 2005, published 2007)

Experiments:
[1] = target: T1, C. glutamicum MetA (Corynebacterium glutamicum, UniProt O68640); test: MetA (in vitro O-acetyltransferase) activity in crude protein extracts, C. glutamicum MetA; assay type: biochemical
T1 construct: contain both endogenous and episomal C. glutamicum MetA and MetY genes; expressed in transfected cells; host or cells: C. glutamicum MA-442 (plasmid MB-4135, metA-metY) and MA-449 (MB-4138, metY-metA), both MA-428 / ATCC 13032 derivatives; crude protein extract
T1 sequence (O68640 whole entry): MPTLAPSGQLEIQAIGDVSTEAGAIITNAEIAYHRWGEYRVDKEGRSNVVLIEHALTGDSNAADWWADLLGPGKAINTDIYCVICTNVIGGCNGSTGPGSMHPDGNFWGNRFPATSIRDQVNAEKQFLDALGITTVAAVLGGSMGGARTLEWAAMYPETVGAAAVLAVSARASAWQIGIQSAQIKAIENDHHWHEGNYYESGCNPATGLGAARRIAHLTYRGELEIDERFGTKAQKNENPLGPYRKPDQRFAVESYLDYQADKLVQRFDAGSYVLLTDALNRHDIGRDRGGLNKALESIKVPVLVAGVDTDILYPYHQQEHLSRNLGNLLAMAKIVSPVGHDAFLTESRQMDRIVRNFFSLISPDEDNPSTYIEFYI
Protocol: MetA activity in C. glutamicum expressing endogenous and episomal metA genes was determined. MetA activity was assayed in crude protein extracts using a protocol described by Kredich and Tomkins (J. Biol. Chem.241(21): 4955-4965, 1966). […] Briefly, 1 μg of protein extract was added to a microtiter plate. Reaction mix (250 μl; 100 mM tris-HCl pH 7.5, 2 mM 5,5′-Dithiobis(2-nitrobenzoic acid) (DTN), 2 mM sodium EDTA, 2 mM acetyl CoA, 2 mM homoserine) was added to each well of the microtiter plate. In the course of the reactions, MetA activity liberates CoA from acetyl-CoA. A disulfide interchange occurs between the CoA and DTN to produce thionitrobenzoic acid. The production of thionitrobenzoic acid is followed spectrophotometrically. Absorbance at 412 nm was measured every 5 minutes over a period of 30 minutes. A well without protein extract was included as a control. […] Inhibitors were added directly to the reaction mix before it was added to the protein extract.
Experiments were performed in the presence and absence of IPTG that induces expression of the plasmid borne MetA and MetY genes.

[2] = test system: O-Acetylhomoserine sulfhydrylase (MetY); settings: grown in the presence of 0.5 mM methionine; cited from earlier work

Structure (SMILES) | MetA activity of MA-442 extracts in presence of methionine ([1]; 5 mM methionine) | reduction in MetY enzyme activity [2] [%] | MetA activity of MA-442 extracts in presence of S-AM ([1]; 0.2 mM S-AM)
CSCC[C@H](N)C(=O)O [methionine] | reduced | 99 | –
C[S+](CC[C@H](N)C(=O)[O-])C[C@H]1O[C@@H](n2cnc3c(N)ncnc32)[C@H](O)[C@@H]1O (stereo partly drawn) [S-AM, S-adenosyl methionine] | – | – | reduced
